# ChEMBL document CHEMBL4842313, “Combating multi-drug resistant malaria parasite by inhibiting falcipain-2 and heme-polymerization: Artemisinin-peptidyl vinyl phosphonate hybrid molecules as new antimalarials” (Eur J Med Chem, 2021)
# Activity calls are given as the source filed them. The rule behind the calls is not given here.
# What was measured:
# [1] = target: T1, Falcipain 2 (Plasmodium falciparum, UniProt Q9N6S8); test: Inhibition of recombinant Plasmodium falciparum falcipain-2 expressed in Escherichia coli M15 assessed as reduction in free AMC release using Z-FR-AMC as a substrate measured over 30 mins by fluorometric assay
# T1 sequence (Q9N6S8 whole entry): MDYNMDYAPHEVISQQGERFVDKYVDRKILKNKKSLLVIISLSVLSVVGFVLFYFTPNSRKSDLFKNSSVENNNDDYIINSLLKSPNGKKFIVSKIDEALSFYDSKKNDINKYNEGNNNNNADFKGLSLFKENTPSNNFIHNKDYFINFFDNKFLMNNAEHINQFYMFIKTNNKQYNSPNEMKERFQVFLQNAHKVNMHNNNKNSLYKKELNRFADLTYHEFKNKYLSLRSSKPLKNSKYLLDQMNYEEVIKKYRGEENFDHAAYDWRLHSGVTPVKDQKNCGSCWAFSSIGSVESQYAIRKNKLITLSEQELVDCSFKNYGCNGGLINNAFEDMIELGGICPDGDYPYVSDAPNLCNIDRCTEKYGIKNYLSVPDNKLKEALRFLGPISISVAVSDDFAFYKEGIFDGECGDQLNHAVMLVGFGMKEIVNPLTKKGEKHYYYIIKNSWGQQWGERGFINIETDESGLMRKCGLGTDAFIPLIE
# [2] = target: T1, Falcipain 2; test: Inhibition of recombinant Plasmodium falciparum falcipain-2 expressed in Escherichia coli M15 assessed as reduction in free AMC release using Z-FR-AMC as a substrate measured over 30 mins by Cheng-prusoff equation analysis
# [3] = tested on: Plasmodium falciparum; test: Antimalarial activity against Plasmodium falciparum 3D7 assessed as parasite growth inhibition incubated for 48 hrs by SYBR green DNA fluorescent dye-binding assay; assay type: functional, organism-based; settings: 3D7, 48 h
# [4] = tested on: Plasmodium falciparum; test: Antimalarial activity against chloroquine and pyrimethamine-resistant Plasmodium falciparum 7G8 assessed as parasite growth inhibition incubated for 48 hrs by SYBR green DNA fluorescent dye-binding assay; assay type: functional, organism-based; settings: 7G8, 48 h
# [5] = tested on: Plasmodium berghei; test: Antimalarial activity against blood stage of Plasmodium berghei infected in BALB/c mouse assessed as mouse survival time at 12.5 mg/kg, ip administered once daily for 4 consecutive days (reference value: 12 to 15 days); assay type: functional; settings: time 4 day
# [6] = tested on: Plasmodium falciparum; test: Antimalarial activity against chloroquine, pyrimethamine and mefloquine-resistant Plasmodium falciparum Dd2 assessed as parasite growth inhibition incubated for 48 hrs by SYBR green DNA fluorescent dye-binding assay; assay type: functional, organism-based; settings: Dd2, 48 h
# [7] = tested on: Plasmodium berghei; test: Antimalarial activity against blood stage of Plasmodium berghei infected in BALB/c mouse assessed as parasite clearance at 12.5 mg/kg, ip administered once daily for 4 consecutive days measured on day 10 by Giemsa staining based assay (reference value: 0%); assay type: functional; settings: time 10 day
# [8] = tested on: A549; test: Cytotoxicity against human A549 cells assessed as reduction in cell viability measured after 24 hrs by WST-1 assay; assay type: cell-based; settings: A549, 24 h
# [9] = tested on: Plasmodium berghei; test: Antimalarial activity against blood stage of Plasmodium berghei infected in BALB/c mouse assessed as suppression of parasite growth at 12.5 mg/kg, ip administered once daily for 4 consecutive days measured on day 6 by Giemsa staining based assay; assay type: functional, organism-based; settings: time 6.0 day
# [10] = tested on: Plasmodium berghei; test: Antimalarial activity against blood stage of Plasmodium berghei infected in BALB/c mouse assessed as suppression of parasite growth at 12.5 mg/kg, ip administered once daily for 4 consecutive days measured on day 5 by Giemsa staining based assay; assay type: functional, organism-based; settings: time 5.0 day
# [11] = target: T2, Heme ligase (Plasmodium falciparum (isolate 3D7)) (UniProt Q8IL04); test: Inhibition of recombinant Plasmodium falciparum heme detoxification protein expressed in Escherichia coli M15 assessed as reduction in hemozoin formation using heme as substrate measured after 3 hrs relative to control; settings: concentration not given here
# T2 sequence (whole entry): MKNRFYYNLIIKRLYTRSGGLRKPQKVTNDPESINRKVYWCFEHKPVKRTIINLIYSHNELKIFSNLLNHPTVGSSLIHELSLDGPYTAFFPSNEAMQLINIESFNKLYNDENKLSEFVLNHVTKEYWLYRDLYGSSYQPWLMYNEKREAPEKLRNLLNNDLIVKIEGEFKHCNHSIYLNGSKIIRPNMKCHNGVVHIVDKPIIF
# [12] = tested on: Plasmodium falciparum; test: Antimalarial activity against asexual blood stage of Plasmodium falciparum assessed as inhibition of mature schizonts development at EC50 observed at 48 hrs post invasion; assay type: functional, organism-based
# [13] = tested on: Plasmodium falciparum; test: Antimalarial activity against laboratory adapted artemisinin-resistant Plasmodium falciparum RT4974 assessed as inhibition of the survival of ring-stage parasite measured after 66 hrs by ring survival assay; assay type: functional, organism-based
# [14] = tested on: Cytochrome P450; test: Inhibition of CYP450 (unknown origin); assay type: ADME, protein assay; settings: human
# [15] = Drug degradation in human plasma; assay type: ADME, cell-free
# [16] = tested on: Plasmodium falciparum; test: Antimalarial activity against asexual blood stage of Plasmodium falciparum assessed as abnormalities in food vacuole observed upto 60 hrs post invasion; assay type: functional, organism-based; settings: time hrs <=60
# [17] = tested on: Plasmodium falciparum; test: Antimalarial activity against asexual blood stage of Plasmodium falciparum assessed as darkly stained dead parasites at EC50 observed at 60 hrs post invasion; assay type: functional, organism-based
compound,measurement,setting,value
COC(=O)[C@H](CC(C)C)NC(=O)[C@@H]1C[C@@H](O[C@H]2O[C@@H]3O[C@@]4(C)CC[C@H]5[C@H](C)CC[C@@H]([C@H]2C)[C@@]35OO4)CN1C(=O)OCc1ccccc1,IC50,[1],> 100000 nM
same,Ki,[2],Not Active
CCOP(=O)(/C=C/[C@H](NC(=O)[C@H](CC(C)C)NC(=O)[C@@H]1C[C@@H](O[C@H]2O[C@@H]3O[C@@]4(C)CC[C@H]5[C@H](C)CC[C@@H]([C@H]2C)[C@@]35OO4)CN1C(=O)OCc1ccccc1)c1ccccc1)OCC,EC50,[3],6.12 nM
same,Ki,[2],Not Active
CCOP(=O)(/C=C/[C@@H](NC(=O)[C@H](CC(C)C)NC(=O)[C@H](CO[C@H]1O[C@@H]2O[C@@]3(C)CC[C@H]4[C@H](C)CC[C@@H]([C@H]1C)[C@@]24OO3)NC(=O)OCc1ccccc1)c1ccccc1)OCC,EC50,[3],10.9 nM
C[C@@H]1CC[C@H]2[C@@H](C)C(=O)O[C@@H]3O[C@@]4(C)CC[C@@H]1[C@]32OO4 [ARTEMISININ],EC50,[3],27 nM
same,EC50,[4],18 nM
same,Survival,[5],15 days
same,EC50,[6],15 nM
same,Activity,[7],0%
COC(=O)[C@H](CO[C@H]1O[C@@H]2O[C@@]3(C)CC[C@H]4[C@H](C)CC[C@@H]([C@H]1C)[C@@]24OO3)NC(=O)OCc1ccccc1,IC50,[1],> 100000 nM
same,Ki,[2],Not Active
CCOP(=O)(/C=C/C(N)c1ccccc1)OCC (stereo not drawn),EC50,[3],> 100000 nM
same,EC50,[8],> 30000 nM
same,IC50,[1],> 25000 nM
same,Ki,[2],Not Active
COC(=O)[C@@H]1C[C@@H](O[C@H]2O[C@@H]3O[C@@]4(C)CC[C@H]5[C@H](C)CC[C@@H]([C@H]2C)[C@@]35OO4)CN1C(=O)OCc1ccccc1,IC50,[1],> 100000 nM
same,Ki,[2],Not Active
CCOP(=O)(/C=C/C(NC(=O)[C@@H]1C[C@@H](O[C@H]2O[C@@H]3O[C@@]4(C)CC[C@H]5[C@H](C)CC[C@@H]([C@H]2C)[C@@]35OO4)CN1C(=O)OCc1ccccc1)c1ccccc1)OCC (stereo partly drawn),IC50,[1],> 100000 nM
same,Ki,[2],Not Active
CCOP(=O)(/C=C/[C@H](NC(=O)[C@H](CC(C)C)NC(=O)[C@H](CO[C@H]1O[C@@H]2O[C@@]3(C)CC[C@H]4[C@H](C)CC[C@@H]([C@H]1C)[C@@]24OO3)NC(=O)OCc1ccccc1)c1ccccc1)OCC,EC50,[3],16.7 nM
C[C@H]1[C@@H](O)O[C@@H]2O[C@@]3(C)CC[C@H]4[C@H](C)CC[C@@H]1[C@@]24OO3 [ARTENIMOL],EC50,[3],4.97 nM
same,EC50,[8],> 25000 nM
same,IC50,[1],> 100000 nM
same,Ki,[2],Not Active
COC(=O)[C@H](Cc1ccccc1)NC(=O)[C@H](CO[C@H]1O[C@@H]2O[C@@]3(C)CC[C@H]4[C@H](C)CC[C@@H]([C@H]1C)[C@@]24OO3)NC(=O)OCc1ccccc1,IC50,[1],> 100000 nM
same,Ki,[2],Not Active
CCOP(=O)(/C=C/C(NC(=O)[C@H](CO[C@H]1O[C@@H]2O[C@@]3(C)CC[C@H]4[C@H](C)CC[C@@H]([C@H]1C)[C@@]24OO3)NC(=O)OCc1ccccc1)c1ccccc1)OCC (stereo partly drawn),IC50,[1],> 100000 nM
same,Ki,[2],Not Active
CCOP(=O)(/C=C/[C@@H](NC(=O)[C@H](Cc1ccccc1)NC(=O)[C@H](CO[C@H]1O[C@@H]2O[C@@]3(C)CC[C@H]4[C@H](C)CC[C@@H]([C@H]1C)[C@@]24OO3)NC(=O)OCc1ccccc1)c1ccccc1)OCC,EC50,[3],0.95 nM
COC(=O)[C@H](Cc1ccccc1)NC(=O)[C@@H]1C[C@@H](O[C@H]2O[C@@H]3O[C@@]4(C)CC[C@H]5[C@H](C)CC[C@@H]([C@H]2C)[C@@]35OO4)CN1C(=O)OCc1ccccc1,IC50,[1],> 100000 nM
same,Ki,[2],Not Active
CCOP(=O)(/C=C/[C@@H](NC(=O)[C@H](CC(C)C)NC(=O)[C@@H]1C[C@@H](O[C@H]2O[C@@H]3O[C@@]4(C)CC[C@H]5[C@H](C)CC[C@@H]([C@H]2C)[C@@]35OO4)CN1C(=O)OCc1ccccc1)c1ccccc1)OCC,EC50,[3],1.04 nM
CCOP(=O)(/C=C/C(NC(=O)[C@H](CC(C)C)NC(=O)[C@@H]1C[C@@H](O[C@H]2O[C@@H]3O[C@@]4(C)CC[C@H]5[C@H](C)CC[C@@H]([C@H]2C)[C@@]35OO4)CN1C(=O)OCc1ccccc1)c1ccccc1)OCC (stereo partly drawn),Activity,[9],Active
same,Activity,[10],inactive
same,inhibition,[11],90%
same,EC50,[3],2.57 nM
same,Activity,[12],Active
same,Activity,[13],Active
same,EC50,[8],1280 nM
same,inhibition (INH),[14],Active
same,Stabilty,[15],Unstable
same,EC50,[4],1.2 nM
same,Survival,[5],>60 days
same,Activity,[16],Active
same,Activity,[17],Active
same,EC50,[6],5.5 nM
same,Activity,[7],100%
CCOP(=O)(/C=C/C(NC(=O)[C@H](CC(C)C)NC(=O)[C@H](CO[C@H]1O[C@@H]2O[C@@]3(C)CC[C@H]4[C@H](C)CC[C@@H]([C@H]1C)[C@@]24OO3)NC(=O)OCc1ccccc1)c1ccccc1)OCC (stereo partly drawn),Activity,[9],Active
same,Activity,[10],inactive
same,inhibition,[11],60%
same,EC50,[3],3.3 nM
same,Activity,[12],Active
same,Activity,[13],Active
same,EC50,[8],3820 nM
same,inhibition (INH),[14],Active
same,Stabilty,[15],Unstable
same,EC50,[4],0.23 nM
same,Survival,[5],>60 days
same,Activity,[16],Active
same,Activity,[17],Active
same,EC50,[6],3.5 nM
same,Activity,[7],100%
CCOP(=O)(/C=C/C(NC(=O)[C@H](Cc1ccccc1)NC(=O)[C@H](CO[C@H]1O[C@@H]2O[C@@]3(C)CC[C@H]4[C@H](C)CC[C@@H]([C@H]1C)[C@@]24OO3)NC(=O)OCc1ccccc1)c1ccccc1)OCC (stereo partly drawn),Activity,[9],Active
same,Activity,[10],inactive
same,inhibition,[11],80%
same,EC50,[3],2.7 nM
same,Activity,[12],Active
same,Activity,[13],Active
same,EC50,[8],14600 nM
same,inhibition (INH),[14],Active
same,Stabilty,[15],Unstable
same,EC50,[4],0.47 nM
same,Survival,[5],>60 days
same,Activity,[16],Active
same,Activity,[17],Active
same,EC50,[6],1.9 nM
same,Activity,[7],80%
COC(=O)[C@H](CC(C)C)NC(=O)[C@H](CO[C@H]1O[C@@H]2O[C@@]3(C)CC[C@H]4[C@H](C)CC[C@@H]([C@H]1C)[C@@]24OO3)NC(=O)OCc1ccccc1,IC50,[1],> 100000 nM
same,Ki,[2],Not Active
CCOP(=O)(/C=C/C(NC(=O)[C@H](Cc1ccccc1)NC(=O)[C@@H]1C[C@@H](O[C@H]2O[C@@H]3O[C@@]4(C)CC[C@H]5[C@H](C)CC[C@@H]([C@H]2C)[C@@]35OO4)CN1C(=O)OCc1ccccc1)c1ccccc1)OCC (stereo partly drawn),IC50,[1],> 100000 nM
same,Ki,[2],Not Active
CCOP(=O)(/C=C/[C@H](NC(=O)[C@H](Cc1ccccc1)NC(=O)[C@H](CO[C@H]1O[C@@H]2O[C@@]3(C)CC[C@H]4[C@H](C)CC[C@@H]([C@H]1C)[C@@]24OO3)NC(=O)OCc1ccccc1)c1ccccc1)OCC,EC50,[3],2.03 nM
